In the first assay the target is T1, HCV polymerase (Hepatitis C virus genotype 1b, UniProt P26663).
T1 construct: 2.5 pmoles (0.15 μg) HCV polymerase protein in a final volume of 75 μL
T1 sequence (P26663 2420-3010): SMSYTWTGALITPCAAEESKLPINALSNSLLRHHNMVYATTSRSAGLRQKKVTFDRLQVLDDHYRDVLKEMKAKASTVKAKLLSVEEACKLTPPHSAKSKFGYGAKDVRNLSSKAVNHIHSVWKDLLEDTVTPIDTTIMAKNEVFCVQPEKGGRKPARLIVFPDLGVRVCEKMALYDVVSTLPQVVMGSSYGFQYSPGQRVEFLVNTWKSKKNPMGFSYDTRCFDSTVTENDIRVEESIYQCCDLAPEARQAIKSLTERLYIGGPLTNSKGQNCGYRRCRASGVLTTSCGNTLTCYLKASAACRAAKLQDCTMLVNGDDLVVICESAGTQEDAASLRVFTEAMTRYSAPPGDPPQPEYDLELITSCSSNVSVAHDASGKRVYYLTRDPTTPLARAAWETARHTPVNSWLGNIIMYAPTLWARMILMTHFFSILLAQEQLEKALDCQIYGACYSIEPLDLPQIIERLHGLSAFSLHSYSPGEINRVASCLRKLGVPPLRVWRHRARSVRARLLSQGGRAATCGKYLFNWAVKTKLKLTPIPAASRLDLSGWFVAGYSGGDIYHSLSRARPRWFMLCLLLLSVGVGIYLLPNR
In words: HCV polymerase primer/template-directed transcription assay (32P-GTP incorporation, filter binding). It is filed as biochemical. As to conditions: @ 20 uM compound; given where IC50 was impractical to calculate; read-out: percent inhibition. In short, it runs like this:
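Recombinant genotype 1b polymerase (30 nM) extended biotin-dG12 primer on poly(rC)300 template with 1 μM GTP plus α-32P-GTP, pH 7.2, 10 mM MgCl2, 30 min at 30° C, 1% DMSO final. Products captured on DE filters and counted. IC50 fitted from triplicate cpm, with a tight-binding correction applied below 200 nM.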
Turning to `COC(=O)Cc1cccc(CCC2(C3CCCC3)CC(=O)CC(=O)O2)c1` (stereo not shown) [A(67), {3-[2-(2-Cyclopentyl-4,6-dioxo-tetrahydro-pyran-2-yl)-ethyl]-phenyl}-acetic acid methyl ester], the inhibition at 20 µM is 24%.
For `O=C1CC(=O)OC(CCc2ccccn2)(C2CCCC2)C1` (stereo not shown) [A(82), 6-Cyclopentyl-6-(2-pyridin-2-yl-ethyl)-dihydro-pyran-2,4-dione], the inhibition at 20 µM was 11%.

Staying with this assay, now noted: @ 50 uM compound; given where IC50 was impractical to calculate; read-out: percent inhibition.
Take `COc1ccc(CCC2(C3CCCC3)CC(=O)CC(=O)O2)c(C(C)=O)c1` (stereo not shown) [A(61), 6-[2-(2-acetyl-4-methoxyphenyl)ethyl]-6-cyclopentyldihydro-2H-pyran-2,4(3H)-dione]: the inhibition at 50 µM was 40%.

Still in this assay, the particulars now being: IC50, recombinant HCV polymerase; 30 minutes at 30° C.; concentration giving 50% inhibition of polymerase-directed transcription.
Take `CC(C)(C#N)c1ccc(CCC2(C3CCCC3)CC(=O)CC(=O)O2)cc1F` (stereo not shown) [A(81), 2-{4-[2-(2-Cyclopentyl-4,6-dioxo-tetrahydro-pyran-2-yl)-ethyl]-2-fluoro-phenyl}-2-methyl-propionitrile]: the IC50 stood at 0.14 µM.

Still in this assay, the particulars now being: recombinant HCV polymerase; 30 minutes at 30° C.; concentration giving 50% inhibition of polymerase-directed transcription; read-out: IC50.
`O=C1CC(=O)OC(CCc2ccc(OC(F)F)cc2)(C2CCCC2)C1` (stereo not shown) [A(58), 6-Cyclopentyl-6-[2-(4-difluoromethoxy-phenyl)-ethyl]-dihydro-pyran-2,4-dione]: the IC50 came out at 6.5 µM.
`O=C1CC(=O)OC(CCc2ccc3c(c2)OC(F)(F)C(F)(F)O3)(C2CCCC2)C1` (stereo not shown) [A(59), 6-Cyclopentyl-6-[2-(2,2,3,3-tetrafluoro-2,3-dihydro-benzo[1,4]dioxin-6-yl)-ethyl]-dihydro-pyran-2,4-dione]: the 50% inhibitory concentration (IC50) turned out to be 3.2 µM.
On the same count and under the same terms, next, `CCCOc1ccc(CCC2(C3CCCC3)CC(=O)CC(=O)O2)cc1` (stereo not shown) [A(60), 6-Cyclopentyl-6-[2-(4-propoxy-phenyl)-ethyl]-dihydro-pyran-2,4-dione]: 8.7 µM.
Same read-out and setting: the result for `CCC(=O)c1cc(OC)ccc1CCC1(C2CCCC2)CC(=O)CC(=O)O1` (stereo not shown) [A(62), 6-cyclopentyl-6-[2-(4-methoxy-2-propionylphenyl)ethyl]dihydro-2H-pyran-2,4(3H)-dione] reads 8.3 µM.
Regarding `CC(C)c1ccc(CCC2(C3CCCC3)CC(=O)CC(=O)O2)cc1Cl` (stereo not shown) [A(63), 6-[2-(3-chloro-4-isopropylphenyl)ethyl]-6-cyclopentyldihydro-2H-pyran-2,4(3H)-dione], the IC50 is 11 µM.
For the compound `CC(C)c1ccc(CCC2(C3CCCC3)CC(=O)CC(=O)O2)cc1F` (stereo not shown) [A(64), 6-cyclopentyl-6-[2-(3-fluoro-4-isopropylphenyl)ethyl]dihydro-2H-pyran-2,4(3H)-dione], the IC50 amounted to 4 µM.
For the compound `CCc1cc(CCC2(C3CCCC3)CC(=O)CC(=O)O2)ccc1F` (stereo not shown) [A(65), 6-cyclopentyl-6-[2-(3-ethyl-4-fluorophenyl)ethyl]dihydro-2H-pyran-2,4(3H)-dione], the IC50 came to 1.3 µM.
For `CCc1cccc(CCC2(C3CCCC3)CC(=O)CC(=O)O2)c1` (stereo not shown) [A(66), 6-Cyclopentyl-6-[2-(3-ethyl-phenyl)-ethyl]-dihydro-pyran-2,4-dione], the IC50 was 3.6 µM.
Same read-out and setting: the result for `CC1(C)C(=O)Oc2ccc(CCC3(C4CCCC4)CC(=O)CC(=O)O3)cc21` (stereo not shown) [A(68), 6-Cyclopentyl-6-[2-(3,3-dimethyl-2-oxo-2,3-dihydro-benzofuran-5-yl)-ethyl]-dihydro-pyran-2,4-dione] reads 3.4 µM.
For the compound `COC(=O)C1(c2cccc(CCC3(C4CCCC4)CC(=O)CC(=O)O3)c2)CC1` (stereo not shown) [A(69), 1-{3-[2-(2-Cyclopentyl-4,6-dioxo-tetrahydro-pyran-2-yl)-ethyl]-phenyl}-cyclopropanecarboxylic acid methyl ester], the IC50 worked out at 9.9 µM.
Still for that read-out and setting: next, `N#CCc1cccc(CCC2(C3CCCC3)CC(=O)CC(=O)O2)c1` (stereo not shown) [A(70), {3-[2-(2-Cyclopentyl-4,6-dioxo-tetrahydro-pyran-2-yl)-ethyl]-phenyl}-acetonitrile]: 9.4 µM; `CC(C)(CNC(=O)c1cc[nH]n1)c1cccc(CCC2(C3CCCC3)CC(=O)CC(=O)O2)c1` (stereo not shown) [A(71), 1H-Pyrazole-3-carboxylic acid (2-{3-[2-(2-cyclopentyl-4,6-dioxo-tetrahydro-pyran-2-yl)-ethyl]-phenyl}-2-methyl-propyl)-amide]: 1.9 µM.
Still for that read-out and setting: next, `CC(C)(CNC(=O)CCc1ccco1)c1cccc(CCC2(C3CCCC3)CC(=O)CC(=O)O2)c1` (stereo not shown) [A(72), N-(2-{3-[2-(2-Cyclopentyl-4,6-dioxo-tetrahydro-pyran-2-yl)-ethyl]-phenyl}-2-methyl-propyl)-3-furan-2-yl-propionamide]: 1.5 µM.
Still for that read-out and setting: next, `Cc1cc(C(=O)NCC(C)(C)c2cccc(CCC3(C4CCCC4)CC(=O)CC(=O)O3)c2)oc1C` (stereo not shown) [A(73), 4,5-Dimethyl-furan-2-carboxylic acid (2-{3-[2-(2-cyclopentyl-4,6-dioxo-tetrahydro-pyran-2-yl)-ethyl]-phenyl}-2-methyl-propyl)-amide]: 3.3 µM.
On to `CC(C)(CNC(=O)c1cnc(O)cn1)c1cccc(CCC2(C3CCCC3)CC(=O)CC(=O)O2)c1` (stereo not shown) [A(74), 5-Hydroxy-pyrazine-2-carboxylic acid (2-{3-[2-(2-cyclopentyl-4,6-dioxo-tetrahydro-pyran-2-yl)-ethyl]-phenyl}-2-methyl-propyl)-amide], for which the IC50 amounted to 1.2 µM.
On the same count and under the same terms, the result for `N#CCC(=O)c1ccc(CCC2(C3CCCC3)CC(=O)CC(=O)O2)cc1` (stereo not shown) [A(75), 3-{4-[2-(2-Cyclopentyl-4,6-dioxo-tetrahydro-pyran-2-yl)-ethyl]-phenyl}-3-oxo-propionitrile] reads 7.1 µM; that for `CC1(C)COc2ccc(CCC3(C4CCCC4)CC(=O)CC(=O)O3)cc21` (stereo not shown) [A(76), 6-Cyclopentyl-6-[2-(3,3-dimethyl-2,3-dihydro-benzofuran-5-yl)-ethyl]-dihydro-pyran-2,4-dione], 5.8 µM; that for `O=C1CC(=O)OC(CCc2ccc(Cc3nccs3)c(F)c2)(C2CCCC2)C1` (stereo not shown) [A(77), 6-Cyclopentyl-6-[2-(3-fluoro-4-thiazol-2-ylmethyl-phenyl)-ethyl]-dihydro-pyran-2,4-dione], 24 µM.
Turning to `O=C1CC(=O)OC(CCc2cccc(Cc3nccs3)c2)(C2CCCC2)C1` (stereo not shown) [A(78), 6-Cyclopentyl-6-[2-(3-thiazol-2-ylmethyl-phenyl)-ethyl]-dihydro-pyran-2,4-dione], the IC50 is 21 µM.
On the same count and under the same terms, next, `O=C1CC(=O)OC(CCc2ccc(CCO)cc2)(C2CCCC2)C1` (stereo not shown) [A(79), 6-Cyclopentyl-6-{2-[4-(2-hydroxy-ethyl)-phenyl]-ethyl}-dihydro-pyran-2,4-dione]: 1 µM; `O=C1CC(=O)OC(CCc2cccc(CCO)c2)(C2CCCC2)C1` (stereo not shown) [A(80), 6-Cyclopentyl-6-{2-[3-(2-hydroxy-ethyl)-phenyl]-ethyl}-dihydro-pyran-2,4-dione]: 20 µM.
In the case of `CCC(CC)Oc1ccc(CCC2(C3CCCC3)CC(=O)CC(=O)O2)cc1Cl` (stereo not shown) [A(83), 6-{2-[3-Chloro-4-(1-ethyl-propoxy)-phenyl]-ethyl}-6-cyclopentyl-dihydro-pyran-2,4-dione], the IC50 is 5.4 µM.
Still for that read-out and setting: next, `CC(=O)c1ccc(CCC2(C3CCCC3)CC(=O)CC(=O)O2)s1` (stereo not shown) [A(84), 6-[2-(5-Acetyl-thiophen-2-yl)-ethyl]-6-cyclopentyl-dihydro-pyran-2,4-dione]: 6.8 µM; `CNS(=O)(=O)c1ccc(CCC2(C3CCCC3)CC(=O)CC(=O)O2)cc1F` (stereo not shown) [A(85), 4-[2-(2-Cyclopentyl-4,6-dioxo-tetrahydro-pyran-2-yl)-ethyl]-2-fluoro-methyl-benzenesulfonamide]: 12.4 µM; `N#CC1(c2ccc(CCC3(C4CCCC4)CC(=O)CC(=O)O3)cc2F)CC1` (stereo not shown) [A(86), 1-{4-[2-(2-Cyclopentyl-4,6-dioxo-tetrahydro-pyran-2-yl)-ethyl]-2-fluoro-phenyl}-cyclopropanecarbonitrile]: 0.4 µM.
`CCc1cc(CCC2(C3CCCC3)CC(=O)CC(=O)O2)ccc1N(C)S(C)(=O)=O` (stereo not shown) [A(87)]: the IC50 was determined as 0.89 µM.
Turning to `CN(c1ccc(CCC2(C3CCCC3)CC(=O)CC(=O)O2)cc1)S(C)(=O)=O` (stereo not shown) [A(88), N-{4-[2-(2-cyclopentyl-4,6-dioxotetrahydro-2H-pyran-2-yl)ethyl]phenyl}-N-methylmethanesulfonamide], the IC50 worked out at 2.3 µM.
For the compound `O=C1CC(=O)OC(CCc2ccc(O)c(C3CCCC3)c2)(C2CCCC2)C1` (stereo not shown) [A(89), 6-cyclopentyl-6-[2-(3-cyclopentyl-4-hydroxyphenyl)ethyl]dihydro-2H-pyran-2,4(3H)-dione], the IC50 came out at 2.8 µM.
Same read-out and setting: next, `CCCc1cc(CCC2(C3CCCC3)CC(=O)CC(=O)O2)ccc1O` (stereo not shown) [A(90), 6-cyclopentyl-6-[2-(4-hydroxy-3-propylphenyl)ethyl]dihydro-2H-pyran-2,4(3H)-dione]: 0.77 µM; `CCC(C#N)(CC)c1ccc(CCC2(C3CCCC3)CC(=O)CC(=O)O2)cc1F` (stereo not shown) [A(91), 2-{4-[2-(2-Cyclopentyl-4,6-dioxo-tetrahydro-pyran-2-yl)-ethyl]-2-fluoro-phenyl}-2-ethyl-butyronitrile]: 0.5 µM; `N#CC1(c2ccc(CCC3(C4CCCC4)CC(=O)CC(=O)O3)cc2F)CCC1` (stereo not shown) [A(92), 1-{4-[2-(2-Cyclopentyl-4,6-dioxo-tetrahydro-pyran-2-yl)-ethyl]-2-fluoro-phenyl}-cyclobutanecarbonitrile]: 1 µM.
Take `CC(C)c1cc(CCC2(C3CCCC3)CC(=O)CC(=O)O2)ccc1O` (stereo not shown) [A(93), 6-Cyclopentyl-6-[2-(4-hydroxy-3-isopropyl-phenyl)-ethyl]-dihydro-pyran-2,4-dione]: the IC50 was determined as 0.7 µM.
As for `CC(=O)Oc1ccc(CCC2(C3CCCC3)CC(=O)CC(=O)O2)cc1C(C)C` (stereo not shown) [A(94), Acetic acid 4-[2-(2-cyclopentyl-4,6-dioxo-tetrahydro-pyran-2-yl)-ethyl]-2-isopropyl-phenyl ester], the IC50 worked out at 4 µM.
